Laboratory results: PMC3858179 (Journal of medicinal chemistry, 2008)
Like-named read-outs stand apart in the source and are kept apart here.

Key:
E. coli TS = E. coli TS (Escherichia coli, UniProt P0A884); assay: Inhibition of isolated E. coli TS; format: biochemical; settings: for % inhibition TS E. coli (number in parenthesis): at the concentration given
T. gondii DHFR [1] = biological target: T1, T. gondii DHFR (Toxoplasma gondii, UniProt Q07422); format: biochemical; settings: 20 compounds jointly assayed, by both protocols (Table 1 and Table 2 conditions)
T1 sequence (Q07422 1-610): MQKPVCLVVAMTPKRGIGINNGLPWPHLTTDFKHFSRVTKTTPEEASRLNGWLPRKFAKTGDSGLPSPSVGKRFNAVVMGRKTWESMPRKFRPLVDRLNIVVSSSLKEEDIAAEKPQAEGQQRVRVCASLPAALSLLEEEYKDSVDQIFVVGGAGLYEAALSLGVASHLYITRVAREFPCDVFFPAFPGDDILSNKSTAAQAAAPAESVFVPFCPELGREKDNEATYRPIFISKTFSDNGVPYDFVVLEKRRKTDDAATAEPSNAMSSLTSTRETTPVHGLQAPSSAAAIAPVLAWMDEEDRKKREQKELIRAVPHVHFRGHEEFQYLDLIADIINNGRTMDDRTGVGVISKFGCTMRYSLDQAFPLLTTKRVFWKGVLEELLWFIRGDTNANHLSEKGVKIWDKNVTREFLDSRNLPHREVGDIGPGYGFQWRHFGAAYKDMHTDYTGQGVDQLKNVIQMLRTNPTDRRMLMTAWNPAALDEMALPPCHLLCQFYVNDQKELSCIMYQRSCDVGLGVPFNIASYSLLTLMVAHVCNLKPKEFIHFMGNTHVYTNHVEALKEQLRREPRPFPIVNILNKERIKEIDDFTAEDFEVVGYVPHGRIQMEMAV

[2] = system: human CCRF-CEM leukemia cells; settings: read-out: EC50 growth of human CCRF-CEM leukemia cells in culture; cited from earlier work
T. gondii DHFR [3] = biological target: T1, T. gondii DHFR; format: biochemical
human DHFR = biological target: T2, human DHFR (Homo sapiens, UniProt P00374); assay: Inhibition of isolated human DHFR; format: biochemical
T2 sequence (P00374 1-187): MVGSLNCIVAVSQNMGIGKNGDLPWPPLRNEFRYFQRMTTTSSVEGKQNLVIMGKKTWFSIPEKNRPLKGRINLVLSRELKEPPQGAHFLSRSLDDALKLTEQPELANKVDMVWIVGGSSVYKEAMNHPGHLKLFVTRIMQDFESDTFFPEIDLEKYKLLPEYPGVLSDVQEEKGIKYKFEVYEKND

human TS = human TS (Homo sapiens, UniProt P04818); assay: Inhibition of isolated human TS; format: biochemical
60 tumor cell lines = assay: NCI in vitro preclinical antitumor screening, 60 tumor cell lines; format: cell-based
SW-620 = assay: NCI tumor cell growth inhibition, SW-620; format: cell-based; settings: Homo sapiens, SW-620, read-out: GI50 SW-620
T. gondii TS = T. gondii TS (Toxoplasma gondii, UniProt Q07422); format: biochemical
E. coli DHFR = E. coli DHFR (Escherichia coli, UniProt P0ABQ4); assay: Inhibition of isolated E. coli DHFR; format: biochemical
HCT 15 = assay: NCI tumor cell growth inhibition, HCT 15; format: cell-based; settings: Homo sapiens, HCT-15, read-out: GI50 HCT 15

Chain of E. coli TS (P0A884 whole entry): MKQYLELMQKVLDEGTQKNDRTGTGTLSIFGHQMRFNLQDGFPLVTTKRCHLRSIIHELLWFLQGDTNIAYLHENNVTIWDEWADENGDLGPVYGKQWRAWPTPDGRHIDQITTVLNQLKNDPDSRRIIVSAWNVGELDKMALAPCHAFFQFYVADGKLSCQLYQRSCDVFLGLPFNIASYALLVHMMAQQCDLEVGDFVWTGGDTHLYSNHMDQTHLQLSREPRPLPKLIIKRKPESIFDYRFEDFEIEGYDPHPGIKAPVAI
Chain of human TS (P04818 whole entry): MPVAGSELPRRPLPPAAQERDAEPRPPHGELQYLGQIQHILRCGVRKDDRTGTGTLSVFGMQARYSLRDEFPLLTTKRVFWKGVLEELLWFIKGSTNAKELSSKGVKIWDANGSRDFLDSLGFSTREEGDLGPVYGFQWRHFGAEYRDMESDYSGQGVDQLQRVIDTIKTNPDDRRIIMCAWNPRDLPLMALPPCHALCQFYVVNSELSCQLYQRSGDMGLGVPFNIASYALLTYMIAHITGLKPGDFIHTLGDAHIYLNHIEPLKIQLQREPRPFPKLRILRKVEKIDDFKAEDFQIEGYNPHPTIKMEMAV
Chain of E. coli DHFR (P0ABQ4 whole entry): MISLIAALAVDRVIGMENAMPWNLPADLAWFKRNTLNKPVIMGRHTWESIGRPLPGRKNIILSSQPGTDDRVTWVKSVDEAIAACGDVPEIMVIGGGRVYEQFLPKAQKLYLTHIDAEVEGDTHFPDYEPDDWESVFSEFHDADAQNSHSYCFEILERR

SMILES	IC50 (E. coli TS)	% inhibition TS E. coli (number in parenthesis) (E. coli TS)	also measured
CC(C)c1c(Sc2cccc3ccccc23)[nH]c2nc(N)nc(N)c12 [Compound 25, 2,4-Diamino-5-isopropyl-6-(1′-napthylsulfanyl)-7H-pyrrolo[2,3-d]pyrimidine]	> 12000 nM	0%	
CC(C)c1c(Sc2ccc3ccccc3c2)[nH]c2nc(N)nc(N)c12 [Compound 26, 2,4-Diamino-5-isopropyl-6-(2′-napthylsulfanyl)-7H-pyrrolo[2,3-d]pyrimidine]	> 2400 nM	0%	
COc1ccc(OC)c(Sc2[nH]c3nc(N)nc(N)c3c2C(C)C)c1 [Compound 23, 2,4-Diamino-5-isopropyl-6-(2′,5′-dimethoxyphenylsulfanyl)-7H-pyrrolo[2,3-d]pyrimidine]	> 2300 nM	0%	potency rank against T. gondii DHFR, in words (T. gondii DHFR [1]): among the six least potent compounds
CCCc1c(Sc2c(Cl)cccc2Cl)[nH]c2nc(N)nc(N)c12 [Compound 11, 2,4-Diamino-5-propyl-6-(2′,6′-dichlorophenylsulfanyl)-7H-pyrrolo[2,3-d]pyrimidine]	> 22000 nM	0%	
CC(C)c1c(Sc2c(Cl)cccc2Cl)[nH]c2nc(N)nc(N)c12 [Compound 19, 2,4-Diamino-5-isopropyl-6-(2′,6′-dichlorophenylsulfanyl)-7H-pyrrolo[2,3-d]pyrimidine]	> 2200 nM	0%	
CN(Cc1cnc2nc(N)nc(N)c2n1)c1ccc(C(=O)N[C@@H](CCC(=O)O)C(=O)O)cc1 [MTX, methotrexate, reference compound]			EC50 [2]: 12.5 nM; potency rank against T. gondii DHFR, in words (T. gondii DHFR [1]): three most potent compounds
Cc1cccc(C)c1Sc1[nH]c2nc(N)nc(N)c2c1C(C)C [Compound 20, 2,4-Diamino-5-isopropyl-6-(2′,6′-dimethylphenylsulfanyl)-7H-pyrrolo[2,3-d] pyrimidine]	> 13000 nM	0%	
COc1ccc(Sc2[nH]c3nc(N)nc(N)c3c2C(C)C)cc1 [Compound 22, 2,4-Diamino-5-isopropyl-6-(4′-methoxyphenylsulfanyl)-7H-pyrrolo[2,3-d]pyrimidine]	> 2500 nM	0%	
CCCc1c(Sc2ccccc2)[nH]c2nc(N)nc(N)c12 [Compound 13, 2,4-Diamino-5-propyl-6-(phenylsulfanyl)-7H-pyrrolo[2,3-d]py-rimidine]	> 14000 nM	0%	
CCCc1c(Sc2cccc3ccccc23)[nH]c2nc(N)nc(N)c12 [Compound 17, 2,4-Diamino-5-propyl-6-(1′-napthylsulfanyl)-7H-pyrrolo[2,3-d]pyrimidine]	> 12000 nM	0%	
CC(C)c1c(Sc2ccccc2)[nH]c2nc(N)nc(N)c12 [Compound 21, 2,4-Diamino-5-isopropyl-6-(phenylsulfanyl)-7H-pyrrolo[2,3-d]pyrimidine]	> 2700 nM	0%	
CC(C)c1c(Sc2ccc(Cl)c(Cl)c2)[nH]c2nc(N)nc(N)c12 [Compound 27, 2,4-Diamino-5-isopropyl-6-(3′,4′-dichlorophenylsulfanyl)-7H-pyrrolo[2,3-d]pyrimidine]	> 2300 nM	0%	potency rank against T. gondii DHFR, in words (T. gondii DHFR [1]): among the six least potent compounds
COc1ccc(Sc2[nH]c3nc(N)nc(N)c3c2C(C)C)cc1OC [Compound 24, 2,4-Diamino-5-isopropyl-6-(3′,4′-dimethoxyphenylsulfanyl)-7H-pyrrolo[2,3-d]pyrimidine]	> 2300 nM	0%	potency rank against T. gondii DHFR, in words (T. gondii DHFR [1]): among the six least potent compounds
CCCc1c(Sc2ccc(C(=O)N[C@@H](CCC(=O)O)C(=O)O)cc2)[nH]c2nc(N)nc(N)c12 [Compound 3, N-[4-[(2,4-Diamino-5-propyl-7H-pyrrolo[2,3-d]pyrimidin-6-yl)sulfanyl]benzoyl]-L-glutamic Acid]			inhibition of T. gondii DHFR, in words (T. gondii DHFR [3]): good inhibitor; inhibition of hDHFR, in words (human DHFR): good inhibitor; inhibition of hTS, in words (human TS): poor inhibitor; GI50 (60 tumor cell lines): < 1000 nM; GI50 (60 tumor cell lines; read-out: GI50 tumor cells in culture): ≤ 100 nM; GI50 (SW-620): 1210 nM; inhibition of T. gondii TS, in words (T. gondii TS): moderate inhibition; inhibition of E. coli DHFR, in words (E. coli DHFR): good inhibitor; potency rank against T. gondii DHFR, in words (T. gondii DHFR [1]): three most potent compounds; GI50 (HCT 15): > 100000 nM; inhibition of E. coli TS, in words (E. coli TS): poor inhibitor
CCCc1c(Sc2c(C)cccc2C)[nH]c2nc(N)nc(N)c12 [Compound 12, 2,4-Diamino-5-propyl-6-(2′,6′-dimethylphenylsulfanyl)-7H-pyrrolo[2,3-d] pyrimidine]	> 24000 nM	0%	
CCCc1c(Sc2ccc(OC)c(OC)c2)[nH]c2nc(N)nc(N)c12 [Compound 16, 2,4-Diamino-5-propyl-6-(3′,4′-dimethoxyphenylsulfanyl)-7H-pyrrolo[2,3-d]pyrimidine]	> 11000 nM	0%	
CCCc1c(Sc2ccc3ccccc3c2)[nH]c2nc(N)nc(N)c12 [Compound 18, 2,4-Diamino-5-propyl-6-(2′-napthylsulfanyl)-7H-pyrrolo[2,3-d]pyrimidine]	> 12000 nM	0%	
CCCc1c(Sc2ccc(OC)cc2)[nH]c2nc(N)nc(N)c12 [Compound 14, 2,4-Diamino-5-propyl-6-(4′-methoxyphenylsulfanyl)-7H-pyr-rolo[2,3-d]pyrimidine]	> 13000 nM	0%	
CCCc1c(Sc2cc(OC)ccc2OC)[nH]c2nc(N)nc(N)c12 [Compound 15, 2,4-Diamino-5-propyl-6-(2′,5′-dimethoxyphenylsulfanyl)-7H-pyrrolo[2,3-d]pyrimidine]	> 12000 nM	0%	
